Among the data in PubChem BioAssay (NCI) are GI50 and TGI values, retold here.

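In this assay, cells in 96-well plates receive the compound at five concentrations for 48 hours. Endpoints are linearly interpolated between the surrounding concentrations. Here, GI50 denotes the concentration required for 50% inhibition of growth. TGI denotes the concentration required for complete inhibition of growth.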

Common to all, as to assay: NCI tumour cell line growth inhibition, 48 h
Assay [1] has as its system PC-3 prostate.
The test system of assay [2] is SK-MEL-2 melanoma.
Assay [3] concerns OVCAR-4 ovarian.
Assay [4] deals with M14 melanoma.
For assay [5], the system named is SNB-19 CNS.
Assay [6] deals with TK-10 renal.
Assay [7] concerns CCRF-CEM leukemia.
For assay [8], the system named is KM12 colon.
Assay [9] relates to CAKI-1 renal.
Assay [10] concerns HOP-62 NSCLC.

`O=C1/C(=C/c2ccccc2Br)COc2ccc(O)c(O)c21`: the GI50 in assay [1] was 1.04 µM; in assay [2] it was 1.97 µM; in assay [3], 2.35 µM; in assay [4], 1.53 µM; in assay [5], 1.69 µM; in [6], 2.01 µM. For the same compound, the GI50 in assay [7] is 0.311 µM; in assay [8], 1.61 µM; in [9] it was 1.31 µM; in [10] it was 2.29 µM. For the same compound, the TGI came to 9.89 µM in assay [1]; 4.82 µM in assay [2]; 10.2 µM in assay [3]; 4.06 µM in [4]; 3.92 µM in assay [5]; 4.09 µM in assay [6]. Besides, the TGI in assay [7] was found to be 1.55 µM; in assay [8], 4.78 µM; in assay [9], 2.74 µM; in assay [10], 6.54 µM.

Regarding `N#Cc1ccc(-c2nc3ccc(Cl)cc3[nH]2)cc1`, the TGI in assay [1], in [2], in [4], in assay [5], in assay [7] and in assay [8] was greater than 100 µM throughout. Also, the TGI in assay [9] and in assay [10] was greater than 100 µM each time.

For the compound `COc1cc2c(=O)n(CCCn3ccnc3)c3c4cc5c(cc4ccc3c2cc1OC)OCO5`, the GI50 in [1] is 0.774 µM; in [2] it was 8.06 µM; in assay [4], 0.698 µM; in [5] it was 0.496 µM; in assay [6], 36 µM; in assay [7], 0.34 µM. For the same compound, the GI50 is 1.37 µM in assay [8] and 0.305 µM in assay [10]. The TGI was greater than 100 µM in [1]; greater than 83.8 µM in [2]; greater than 100 µM in assay [4]; 42.8 µM in [5]; greater than 100 µM in assay [6]; greater than 100 µM in assay [7]. The TGI in assay [8] is greater than 100 µM; in assay [10], 5.37 µM.

For the compound `CC(=O)Nc1ccc2oc(=O)c3ccccc3c2c1`, the TGI in assay [1], in [2], in assay [3], in assay [4], in assay [5] and in assay [7] was greater than 100 µM in each case. Moreover, the TGI in [8], in [9] and in [10] was greater than 100 µM in each case.

With `Cc1ccc2c(N/N=C\c3ccco3)cc(C)nc2n1`, the GI50 was 6.26 µM in [1]; 3.05 µM in assay [2]; 2.99 µM in assay [3]; 2.05 µM in assay [4]; 8.15 µM in assay [5]; 2.23 µM in assay [7]. The results for the GI50 in [8], in assay [9] and in assay [10] were 4.98 µM, 2.93 µM and 10 µM, respectively. Besides, the TGI in assay [1] was 22.5 µM; in assay [2] it was 8.77 µM; in assay [3], 9.19 µM; in [4] it was 4.04 µM; in [5], 24 µM; in assay [7], 6.37 µM. The TGI in assay [8] was 17.9 µM; in [9], 12.8 µM; in [10], 24.4 µM.

Regarding `C#Cc1cccc(Nc2ncnc3ccc(-c4cnc(Cl)c(NS(C)(=O)=O)c4)cc23)c1`, the GI50 was 0.297 µM in [1]; 0.296 µM in assay [2]; 0.762 µM in assay [3]; 0.368 µM in assay [4]; 0.374 µM in assay [5]; 0.236 µM in assay [7]. In addition, the GI50 in [8] is 0.891 µM; in assay [9], 0.164 µM; in assay [10], 0.292 µM. Also, the TGI was 2.82 µM in assay [1]; 1.62 µM in [2]; 8.33 µM in [3]; 2.41 µM in assay [4]; 5.7 µM in [5]; 28.8 µM in assay [7]. Further, the TGI in assay [8] was determined as 2.55 µM; in assay [9], 1.82 µM; in assay [10], 10.7 µM.

Take `CCOC(=O)/C(C#N)=C\C=C1/C=CNC2=NCCN21`: the TGI in assay [2], in assay [3], in [4], in assay [5], in assay [6] and in assay [7] was greater than 100 µM in each case. In addition, the TGI in assay [8], in assay [9] and in assay [10] was greater than 100 µM each time.

On to `N#Cc1nn(C2OC(COC(=O)c3ccccc3)C(OC(=O)c3ccccc3)C2OC(=O)c2ccccc2)c2nc[nH]c(=O)c12` (configuration not stated), for which the TGI in assay [1], in assay [2], in assay [3], in [4], in [5] and in [6] was greater than 100 µM in each case. The TGI is 84.7 µM in assay [7], greater than 100 µM in [9] and greater than 100 µM in assay [10].

On to `CCC(O)(c1ccc(OC)cc1)C(c1ccc(OCc2ccccc2)cc1)c1ccc(OCc2ccccc2)cc1` (configuration not stated), for which the TGI in assay [2], in assay [3], in [4], in [5], in assay [6] and in [7] was greater than 100 µM each time. The TGI in assay [8], in [9] and in assay [10] was greater than 100 µM each time.

Consider `O=C1NC(=O)C(=O)C(c2nc3ccccc3s2)C1=O`, for which the TGI in assay [2], in assay [3], in assay [4], in assay [5], in [6] and in assay [7] was greater than 100 µM throughout. The TGI in assay [8], in assay [9] and in assay [10] was greater than 100 µM throughout.

Consider `O=C(c1cc2c(C(F)(F)F)onc2c2ccccc12)C(F)(F)F`, for which the TGI in [2] was 13.6 µM; in assay [3] it was greater than 100 µM; in [4], greater than 58.6 µM; in assay [5], greater than 27.9 µM; in assay [6], 42.2 µM; in assay [7], 21.6 µM. Moreover, the TGI in [8] is 52.9 µM; in [9], 20.9 µM; in assay [10], 11.3 µM.

In the case of `Cc1ccc(NC(=O)CC/C(CC(=O)c2ccc(Cl)cc2)=N\NC(=O)C(=O)NN)cc1C`, the TGI in assay [2], in [3], in [4], in assay [5], in [6] and in [7] was greater than 100 µM each time. Besides, the TGI in [8], in assay [9] and in [10] was greater than 100 µM throughout.

On to `CC(C)c1cccc(C(C)C)c1N=C(N)C#N`, for which the TGI in assay [2], in assay [3], in assay [4], in assay [5], in [6] and in assay [7] was greater than 100 µM in each case. Also, the TGI in assay [8], in [9] and in assay [10] was greater than 100 µM each time.

Take `COc1ccc(C(=O)C(Br)C(Br)C(=O)O)cc1` (configuration not stated): the TGI in assay [1], in [2], in [3], in [4], in [5] and in assay [6] was greater than 100 µM each time. In addition, the TGI in assay [8], in assay [9] and in assay [10] was greater than 100 µM each time.

With `COc1cc([C@@H]2c3cc4c(cc3[C@H](OC(C)=O)[C@H]3COC(=O)[C@H]23)OCO4)cc(OC)c1OC`, the GI50 in assay [1] is 0.0371 µM; in assay [2], 27.6 µM; in assay [3], 0.0826 µM; in assay [5] it was 0.0436 µM; in assay [6], 75.2 µM; in assay [7] it was 0.0337 µM. For the same compound, the figures for the GI50 in assay [8] and in [10] were 0.0306 µM and 0.0483 µM, respectively. The TGI in [1], in assay [2], in [3], in assay [5], in assay [6] and in assay [7] was greater than 100 µM each time. The TGI in [8] and in [10] was greater than 100 µM each time.

For the compound `CC([C@H]1CCC2C3CCC4CC5(CC[C@]4(C)C3CC[C@@]21C)c1ccccc1C(=O)N5C)N(C)C` (some centres not stated), the TGI in [2] is 42.9 µM; in assay [3] it was greater than 100 µM; in assay [4], 38.7 µM; in assay [5] it was greater than 100 µM; in [6] it was greater than 100 µM; in assay [7], greater than 100 µM. Further, the TGI in [8], in assay [9] and in [10] was greater than 100 µM throughout.

Turning to `NNC(=O)CCC(=O)Nc1ccc(Cl)cc1Cl`, the TGI in assay [2], in [3], in assay [4], in assay [5], in [6] and in assay [7] was greater than 100 µM throughout. Further, the TGI in assay [8], in assay [9] and in [10] was greater than 100 µM throughout.

For `CCN(CC)C(=O)CNC(=O)OC(C)(C)C`, the TGI in assay [2], in assay [3], in assay [4], in [5], in assay [6] and in [7] was greater than 100 µM each time. The TGI in assay [8], in [9] and in assay [10] was greater than 100 µM in each case.

For `CN(C)Cc1cccc(CN(C)C)[c]1[Sn]([Br])([c]1ccccc1)[c]1ccccc1`, the GI50 was 17.1 µM in assay [1]; 15.9 µM in assay [4]; 18.7 µM in assay [5]; 17.2 µM in assay [6]; 5.45 µM in [7]; 11 µM in [8]. The GI50 in assay [9] is 21.3 µM; in assay [10] it was 17.2 µM. Further, the TGI in [1] was 96.9 µM; in assay [4], 30.6 µM; in [5], 48.4 µM; in assay [6] it was 46.9 µM; in assay [7], greater than 100 µM; in assay [8], 28.1 µM. For the same compound, the values for the TGI in [9] and in assay [10] were 47.1 µM and 39.5 µM, respectively.

Turning to `O=c1ccccc(-c2ccc(-c3ccco3)cc2)c1O`, the GI50 was 1.46 µM in [1]; 10.5 µM in [2]; 0.363 µM in assay [3]; 0.665 µM in assay [4]; 1.04 µM in assay [5]; 0.819 µM in assay [6]. The GI50 is 0.505 µM in assay [7], 0.743 µM in assay [8] and 0.694 µM in assay [10]. Further, the TGI in assay [1] is 31.8 µM; in [2], 44.2 µM; in assay [3], 60.2 µM; in assay [4] it was 6.11 µM; in assay [5] it was 22.9 µM; in assay [6], 82.9 µM. The TGI in assay [7] is greater than 100 µM; in [8] it was 17.5 µM; in assay [10], 12.9 µM.

On to `O=C(NC1CCN(Cc2ccccc2)CC1)c1cc(C(=O)NC2CCN(Cc3ccccc3)CC2)cc(C(=O)NC2CCN(Cc3ccccc3)CC2)c1`, for which the GI50 in assay [1] was 7.73 µM; in assay [2], 9.02 µM; in assay [3], 2.43 µM; in assay [5] it was 8.61 µM; in assay [6] it was 18.3 µM; in assay [7], 1.75 µM. Moreover, the GI50 is 3.37 µM in assay [8], greater than 50 µM in assay [9] and 9.33 µM in assay [10]. Further, the TGI in assay [1] is 19.5 µM; in [2], 16.9 µM; in assay [3], 10.2 µM; in assay [5] it was 17.6 µM; in assay [6], greater than 50 µM; in assay [7], 5.17 µM. Besides, the TGI in assay [8] was 12.1 µM; in assay [9], greater than 50 µM; in assay [10], 19.7 µM.

Turning to `COc1ccc(-c2csc(NC(=O)N3CCN(c4cc5c(cc4F)c(=O)c(C(=O)O)cn5C4CC4)CC3)n2)cc1`, the GI50 was 2.98 µM in assay [1]; 2.42 µM in [2]; 2.31 µM in assay [4]; 3.29 µM in [5]; 6.93 µM in [6]; 1.43 µM in assay [7]. The GI50 in assay [8] was 1.63 µM; in assay [10], 3.02 µM. Moreover, the TGI in assay [1] is greater than 100 µM; in assay [2], 7.1 µM; in assay [4] it was greater than 100 µM; in assay [5], greater than 100 µM; in [6], 37 µM; in [7], 13.1 µM. In addition, the TGI in assay [8] was greater than 100 µM; in [10], 32.6 µM.
